Experimental data from publication PMC7734625, “Stabilization Strategies for Linear Minigastrin Analogues: Further Improvements via the Inclusion of Proline into the Peptide Sequence” (Journal of Medicinal Chemistry, 2020).
Read-outs that look alike come from different tables or passages of the source. Non-standard residues stand in square brackets, D forms with d. Residues, ends and D or L forms follow the SMILES beside them. *: point of attachment. DOTA = O=C(O)CN1CCN(CC(=O)O)CCN(CC(=O)*)CCN(CC(=O)O)CC1; 1Nal = N[C@@H](Cc1cccc2ccccc12)C(=O)O; NMeNle = CCCC[C@H](NC)C(=O)O

Experiment: biodistribution in A431-CCK2R/A431-mock xenografted BALB/c nude mice
Format: in vivo
Details: female, athymic BALB/c nude, mouse, iv, total radioactivity; for tissue to tissue ratio at 4 h / tissue uptake at 4 h: 4 h p.i.; for tissue uptake at 12 h / tissue to tissue ratio at 12 h: 12 h p.i.
Procedure: Biodistribution studies evaluating the tumor uptake of the radiolabeled peptides were performed in 7- to 9-week-old female athymic BALB/c nude mice (Charles River, Sulzfeld, Germany). For the induction of tumor xenografts, 150 μL of DMEM containing 2 × 10^6 A431-CCK2R and A431-mock cells were injected subcutaneously in the right and left flank of each mouse, respectively. And 10–14 days after injection, tumors reached a medium weight of ∼0.25 g. The mice were divided into groups of four and injected intravenously via a lateral tail vein with 0.2 MBq of ^111In-labeled compound (0.02 nmol) and 0.7 and 1.5 MBq of the ^177Lu-labeled compound (0.02 and 0.15 nmol). At 4 and 12 h p.i., the mice were sacrificed and the tumors and other tissues (blood, lung, heart, muscle, spleen, intestine, liver, kidneys, stomach, and pancreas) were removed, weighed, and their radioactivity measured in the γ counter together with the rest of the body. Initial biodistribution studies were performed with the three ^177Lu-labeled CCK2R-targeting ligands at an injected peptide amount of 20 pmol for the time point of 4 h p.i. From these studies, two peptide analogues were selected to further characterize the biodistribution profile also at a later time point of 12 h p.i. and at a higher injected peptide amount of 150 pmol. Additional animal studies were performed for the ^111In-labeled conjugates. Percentage of injected activity per gram tissue (%IA/g), tumor-to-organ activity ratios, as well as whole body activity were calculated for each sample and statistical analysis using independent two-population t-test (significance level p < 0.05) was performed using Origin software. For the comparison of more than two groups, data were analyzed using one-way analysis of variance (ANOVA) Holm–Bonferroni-adjusted post hoc analysis (significance level p < 0.05) using Microsoft Excel 2010 software (Microsoft Excel 2010, Microsoft Corporation, WA).

[1] = A431-CCK2R xenograft tumor / blood, 20 pmol, 20 pmol, read-out: tumor-to-blood ratio
[2] = A431-CCK2R xenograft tumor / kidney, 20 pmol, 20 pmol, read-out: tumor-to-kidney ratio
[3] = A431-CCK2R xenograft tumor / liver, 20 pmol, 20 pmol, read-out: tumor-to-liver ratio
[4] = A431-CCK2R xenograft tumor / stomach, 20 pmol, 20 pmol, read-out: tumor-to-stomach ratio
[5] = A431-CCK2R xenograft tumor, 20 pmol, 20 pmol, read-out: tumor uptake in A431-CCK2R xenografts
[6] = A431-CCK2R xenograft tumor, 150 pmol, 150 pmol, read-out: tumor uptake in A431-CCK2R xenografts
[7] = A431-mock xenograft tumor, 20 pmol, 20 pmol, read-out: uptake in A431-mock xenografts
[8] = blood, 20 pmol, 20 pmol, read-out: uptake in blood
[9] = heart, 20 pmol, 20 pmol, read-out: uptake in heart
[10] = intestine, 20 pmol, 20 pmol, read-out: uptake in intestine
[11] = intestine, 150 pmol, 150 pmol, read-out: uptake in intestine
[12] = kidney, 20 pmol, 20 pmol, read-out: uptake in kidney
[13] = kidney, 150 pmol, 150 pmol, read-out: uptake in kidney
[14] = liver, 20 pmol, 20 pmol, read-out: uptake in liver
[15] = liver, 150 pmol, 150 pmol, read-out: uptake in liver
[16] = lung, 20 pmol, 20 pmol, read-out: uptake in lung
[17] = lung, 150 pmol, 150 pmol, read-out: uptake in lung
[18] = muscle, 20 pmol, 20 pmol, read-out: uptake in muscle
[19] = muscle, 150 pmol, 150 pmol, read-out: uptake in muscle
[20] = pancreas, 20 pmol, 20 pmol, read-out: uptake in pancreas
[21] = pancreas, 150 pmol, 150 pmol, read-out: uptake in pancreas
[22] = spleen, 20 pmol, 20 pmol, read-out: uptake in spleen
[23] = stomach, 20 pmol, 20 pmol, read-out: uptake in stomach
[24] = stomach, 150 pmol, 150 pmol, read-out: uptake in stomach
[25] = tumor/blood, 20 pmol, 20 pmol, read-out: tumor-to-blood ratio
[26] = tumor/blood, 150 pmol, 150 pmol, read-out: tumor-to-blood ratio
[27] = tumor/kidney, 20 pmol, 20 pmol, read-out: tumor-to-kidney ratio
[28] = tumor/kidney, 150 pmol, 150 pmol, read-out: tumor-to-kidney ratio
[29] = tumor/liver, 20 pmol, 20 pmol, read-out: tumor-to-liver ratio
[30] = tumor/liver, 150 pmol, 150 pmol, read-out: tumor-to-liver ratio
[31] = tumor/stomach, 20 pmol, 20 pmol, read-out: tumor-to-stomach ratio
[32] = tumor/stomach, 150 pmol, 150 pmol, read-out: tumor-to-stomach ratio

CCCC[C@@H](C(=O)N[C@@H](CC(=O)O)C(=O)N[C@@H](Cc1cccc2ccccc12)C(N)=O)N(C)C(=O)[C@H](Cc1c[nH]c2ccccc12)NC(=O)CNC(=O)[C@H](Cc1ccc(O)cc1)NC(=O)[C@@H]1CCCN1C(=O)[C@@H](CCC(=O)O)NC(=O)CN1CCN(CC(=O)O)CCN(CC(=O)O)CCN(CC(=O)O)CC1 [[^177Lu]Lu-1, metal not drawn] ({DOTA}-[dE]PYGW[NMeNle]D[1Nal]-NH2)
tissue to tissue ratio at 4 h [1]: 540 ± 103 | tissue to tissue ratio at 4 h [2]: 10 | tissue to tissue ratio at 4 h [3]: 83.3 ± 23 | tissue to tissue ratio at 4 h [4]: 5 | tissue uptake at 4 h [5]: 34.7 ± 9.4 %ID/g | tissue uptake at 12 h [5]: 23.4 ± 8.64 %ID/g | tissue uptake at 4 h [6]: 16.7 ± 1.48 %ID/g | tissue uptake at 4 h [7]: 0.32 ± 0.14 %ID/g | tissue uptake at 12 h [7]: 0.11 ± 0.02 %ID/g | tissue uptake at 4 h [8]: 0.07 ± 0.02 %ID/g | tissue uptake at 12 h [8]: 0.01 %ID/g | tissue uptake at 4 h [9]: 0.09 ± 0.01 %ID/g | tissue uptake at 12 h [9]: 0.05 ± 0.01 %ID/g | tissue uptake at 4 h [10]: 1.14 ± 0.51 %ID/g | tissue uptake at 12 h [10]: 0.24 ± 0.02 %ID/g | tissue uptake at 4 h [11]: 0.61 ± 0.13 %ID/g | tissue uptake at 4 h [12]: 3.97 ± 1.31 %ID/g | tissue uptake at 12 h [12]: 3.12 ± 1.05 %ID/g | tissue uptake at 4 h [13]: 4.04 ± 0.82 %ID/g | tissue uptake at 4 h [14]: 0.42 ± 0.06 %ID/g | tissue uptake at 12 h [14]: 0.32 ± 0.09 %ID/g | tissue uptake at 4 h [15]: 0.49 ± 0.12 %ID/g | tissue uptake at 4 h [16]: 0.14 ± 0.05 %ID/g | tissue uptake at 12 h [16]: 0.11 ± 0.07 %ID/g | tissue uptake at 4 h [17]: 0.15 ± 0.07 %ID/g | tissue uptake at 4 h [18]: 0.06 ± 0.05 %ID/g | tissue uptake at 12 h [18]: 0.02 ± 0.01 %ID/g | tissue uptake at 4 h [19]: 0.05 ± 0.03 %ID/g | tissue uptake at 4 h [20]: 2.09 ± 0.84 %ID/g | tissue uptake at 12 h [20]: 0.76 ± 0.13 %ID/g | tissue uptake at 4 h [21]: 0.35 ± 0.06 %ID/g | tissue uptake at 4 h [22]: 0.18 ± 0.04 %ID/g | tissue uptake at 12 h [22]: 0.13 ± 0.03 %ID/g | tissue uptake at 4 h [23]: 7.37 ± 2.26 %ID/g | tissue uptake at 12 h [23]: 4.18 ± 0.72 %ID/g | tissue uptake at 4 h [24]: 1.26 ± 0.5 %ID/g | tissue to tissue ratio at 12 h [25]: 2440 ± 1780 | tissue to tissue ratio at 4 h [26]: 294 ± 137 | tissue to tissue ratio at 12 h [27]: 8.14 ± 4.06 | tissue to tissue ratio at 4 h [28]: 4.25 ± 0.88 | tissue to tissue ratio at 12 h [29]: 76.8 ± 34.4 | tissue to tissue ratio at 4 h [30]: 35.9 ± 9.9 | tissue to tissue ratio at 12 h [31]: 5.54 ± 1.44 | tissue to tissue ratio at 4 h [32]: 14.9 ± 5.6

CCCC[C@@H](C(=O)N[C@@H](CC(=O)O)C(=O)N[C@@H](Cc1cccc2ccccc12)C(N)=O)N(C)C(=O)[C@H](Cc1c[nH]c2ccccc12)NC(=O)CNC(=O)[C@@H]1CCCN1C(=O)[C@H](Cc1ccc(O)cc1)NC(=O)[C@@H](CCC(=O)O)NC(=O)CN1CCN(CC(=O)O)CCN(CC(=O)O)CCN(CC(=O)O)CC1 [[^177Lu]Lu-2, metal not drawn] ({DOTA}-[dE]YPGW[NMeNle]D[1Nal]-NH2)
tissue to tissue ratio at 4 h [1]: 429 ± 134 | tissue to tissue ratio at 4 h [2]: 6.51 ± 2.29 | tissue to tissue ratio at 4 h [3]: 80.6 ± 26.5 | tissue to tissue ratio at 4 h [4]: 7.31 ± 1.84 | tissue uptake at 4 h [5]: 33.2 ± 6.34 %ID/g | tissue uptake at 12 h [5]: 25 ± 4.92 %ID/g | tissue uptake at 4 h [6]: 17.2 ± 5.98 %ID/g | tissue uptake at 4 h [7]: 0.25 ± 0.06 %ID/g | tissue uptake at 12 h [7]: 0.15 ± 0.03 %ID/g | tissue uptake at 4 h (A431-mock xenograft tumor, 150 pmol, 150 pmol, read-out: uptake in A431-mock xenografts): 0.33 ± 0.05 %ID/g | tissue uptake at 4 h [8]: 0.08 ± 0.01 %ID/g | tissue uptake at 12 h [8]: 0.01 %ID/g | tissue uptake at 4 h (blood, 150 pmol, 150 pmol, read-out: uptake in blood): 0.09 ± 0.01 %ID/g | tissue uptake at 4 h [9]: 0.09 ± 0.01 %ID/g | tissue uptake at 12 h [9]: 0.05 ± 0.01 %ID/g | tissue uptake at 4 h (heart, 150 pmol, 150 pmol, read-out: uptake in heart): 0.15 ± 0.05 %ID/g | tissue uptake at 4 h [10]: 0.56 ± 0.1 %ID/g | tissue uptake at 12 h [10]: 0.19 ± 0.02 %ID/g | tissue uptake at 4 h [11]: 0.55 ± 0.08 %ID/g | tissue uptake at 4 h [12]: 5.53 ± 1.51 %ID/g | tissue uptake at 12 h [12]: 3.37 ± 0.17 %ID/g | tissue uptake at 4 h [13]: 7.88 ± 1.26 %ID/g | tissue uptake at 4 h [14]: 0.43 ± 0.08 %ID/g | tissue uptake at 12 h [14]: 0.27 ± 0.03 %ID/g | tissue uptake at 4 h [15]: 0.79 ± 0.19 %ID/g | tissue uptake at 4 h [16]: 0.17 ± 0.01 %ID/g | tissue uptake at 12 h [16]: 0.08 ± 0.01 %ID/g | tissue uptake at 4 h [17]: 0.25 ± 0.04 %ID/g | tissue uptake at 4 h [18]: 0.06 ± 0.03 %ID/g | tissue uptake at 12 h [18]: 0.02 %ID/g | tissue uptake at 4 h [19]: 0.1 ± 0.09 %ID/g | tissue uptake at 4 h [20]: 1.21 ± 0.49 %ID/g | tissue uptake at 12 h [20]: 0.82 ± 0.06 %ID/g | tissue uptake at 4 h [21]: 0.73 ± 0.55 %ID/g | tissue uptake at 4 h [22]: 0.16 ± 0.01 %ID/g | tissue uptake at 12 h [22]: 0.13 ± 0.01 %ID/g | tissue uptake at 4 h (spleen, 150 pmol, 150 pmol, read-out: uptake in spleen): 0.28 ± 0.08 %ID/g | tissue uptake at 4 h [23]: 4.68 ± 0.93 %ID/g | tissue uptake at 12 h [23]: 4.12 ± 0.82 %ID/g | tissue uptake at 4 h [24]: 1.02 ± 0.45 %ID/g | tissue to tissue ratio at 12 h [25]: 2000 ± 750 | tissue to tissue ratio at 4 h [26]: 188 ± 80 | tissue to tissue ratio at 12 h [27]: 7.41 ± 1.33 | tissue to tissue ratio at 4 h [28]: 2.23 ± 0.87 | tissue to tissue ratio at 12 h [29]: 131 ± 37 | tissue to tissue ratio at 4 h [30]: 22.8 ± 10 | tissue to tissue ratio at 12 h [31]: 6.15 ± 1.12 | tissue to tissue ratio at 4 h [32]: 12.7 ± 4.9
